Experiments:
cAMP in PN cells = test: Cyclic AMP enzyme immunoassay in cells; format: cell-based, mouse
Experimental: FIG. 4A, FIG. 4B, FIG. 4C, FIG. 4D, and FIG. 4E show (FIG. 4A-FIG. 4B) cAMP levels are reduced by VX-809. (FIG. 4A) cAMP levels in mouse tissue were reduced by VX-809. The kidney samples (n=6) analyzed were taken from those depicted in FIG. 1. (FIG. 4B) Confluent PN and PH cells were treated with VX-809 (10 μM) or DMSO for 16 hand then treated with forskolin (100 μM) for 30 min before the cells were harvested for the assay. Columns represent means±SEM. Statistical analysis was performed using a two-tailed Student's t-test. Each set of data is from three individual wells; Note that resting cAMP is greater in PN vs PH cells as previously shown (25). Also note that forskolin caused a large increase in cAMP. A smaller increase occurred with IBMX. However, the increase induced by forskolin alone was similar to that by IBMX plus forskolin. […] (FIG. 4C, FIG. 4D, and FIG. 4E) Adenylyl cyclase expression. (FIG. 4C) Western blot showing the expression of adenylyl cyclase (AC) 6 and AC3 in treated and control PN cells. (FIG. 4D-FIG. 4E) Columns represent means±SEM of the AC3 and AC6 expression. The data were analyzed by non-parametric t-test. The experiment was repeated four times. For all graphs, *P<0.05, **P<0.01, and ***P<0.001;
It has been shown previously in both animal and cell culture models of ADPKD that cells lacking functional PC1 have elevated cAMP levels when compared to normal. To assess the effect of CFTR correctors, cAMP activity was measured in PC1 conditional knockout mouse kidneys and in PN cells that were either left untreated or treated with VX-809. […] Cells were treated with forskolin, which increased cAMP levels drastically (FIG. 4B). It should be noted that VX-809 reduced the forskolin-induced increase in cAMP, indicating a direct action of VX-809 on adenylyl cyclase activity. […] Treating PN cells with forskolin or IBMX (FIG. 4B) increased the cAMP activity by approximately 10-fold.
Cyclic AMP assay. Confluent cells were treated with VX-809 (10 μM) or DMSO for 16 h before being harvested for assay. Cyclic AMP levels were measured with a direct cAMP Enzyme Immunoassay Kit (Sigma, #CA200) according to the manufacturer's protocol. The results are expressed as pmole/ml. Statistical analysis was performed using a two-tailed Student's t-test.

cAMP = cAMP level in mouse kidney tissue; format: in vivo; conditions: PC1 conditional knockout mouse kidneys, VX-809-treated vs untreated
Experimental: FIG. 4A, FIG. 4B, FIG. 4C, FIG. 4D, and FIG. 4E show (FIG. 4A-FIG. 4B) cAMP levels are reduced by VX-809. (FIG. 4A) cAMP levels in mouse tissue were reduced by VX-809. The kidney samples (n=6) analyzed were taken from those depicted in FIG. 1. (FIG. 4B) Confluent PN and PH cells were treated with VX-809 (10 μM) or DMSO for 16 hand then treated with forskolin (100 μM) for 30 min before the cells were harvested for the assay. Columns represent means±SEM. Statistical analysis was performed using a two-tailed Student's t-test. Each set of data is from three individual wells; Note that resting cAMP is greater in PN vs PH cells as previously shown (25). Also note that forskolin caused a large increase in cAMP. A smaller increase occurred with IBMX. […] The data were analyzed by non-parametric t-test. […]
It has been shown previously in both animal and cell culture models of ADPKD that cells lacking functional PC1 have elevated cAMP levels when compared to normal. To assess the effect of CFTR correctors, cAMP activity was measured in PC1 conditional knockout mouse kidneys and in PN cells that were either left untreated or treated with VX-809. […]
Cyclic AMP assay. […] Cyclic AMP levels were measured with a direct cAMP Enzyme Immunoassay Kit (Sigma, #CA200) according to the manufacturer's protocol. The results are expressed as pmole/ml. […]

[1] = system: PC2 in the primary cilium; test: Confocal microscopy of PC2 in cilia of kidney sections; format: in vivo, mouse; conditions: doxycycline plus VX-809 vs doxycycline plus DMSO
Experimental: To determine the location of PC2 in the cilia, confocal microscopy experiments using the Pkd1^fl/fl; Pax8^rtTA TetO-cre mouse model were conducted. These mice, when injected intraperitoneally (IP) with doxycycline on postnatal days (PND) 11, 12, and 13, developed multiple large cysts and large polycystic kidneys at approximately 3 weeks of age.
Mice were treated without doxycycline (NoDoxy), with doxycycline plus DMSO (Doxy), or with doxycycline plus VX809 (Doxy VX809), as indicated. PC2 staining is shown in red, acetylated (ac) αtubulin is shown in green, regions of colocalization of PC2 and ac-atubulin are shown in yellow. Scale bar is 10 μm. All pictures were taken with a 63× objective.
FIG. 21 is a graph of the percentage of cells with ciliary staining. Mice were treated without doxycycline (NoDoxy), with doxycycline plus DMSO (Doxy), or with doxycycline plus VX809 (Doxy VX809), as indicated, and kidney cells were analyzed. Pearson's coefficient was measured using at least 10 cells per image. Three animals were analyzed for each maneuver.
In normal mice PC2 is located in the primary cilium.

PC2 = test: Confocal localization of PC2 with ER, Golgi and PM markers; format: cell-based; conditions: treated vs control cells, Pearson's correlation with markers
Source text: FIG. 17A and FIG. 17B show images of confocal microscopy localization studies of PC2 and localization markers in control and treated cells (FIG. 17A) and graphs showing Pearson's correlation coefficient for PC2 and localization markers in control and VX-809 treated cells (FIG. 17B).
The localization of PC2 and CFTR in control cells was compared to the localization of PC2 and CFTR localization in VX-809 treated cells.

[2] = system: caspase 3 activity in PN cells; test: EnzChek Caspase-3 assay (apoptosis); format: cell-based, mouse; conditions: 16 h
Experimental: Apoptosis was measured using the EnzChek Caspase-3 Assay Kit (Invitrogen #E13184). Cells were treated either with VX-809 or with DMSO at indicated concentrations for 16 h or left untreated (control). Both treated and control cells were then harvested, lysed, and assayed as described in the manufacturer's protocol. Reactions were carried out at room temperature, and fluorescence was measured in a fluorescence microplate reader (SpectraMax M3), with excitation at 496 nm and emission detection at 520 nm. Background fluorescence, determined for a no-enzyme control, has been subtracted from each value. Ac-DEVD-CHO was used as an inhibitor control (Inh-cntr1) to confirm the correlation between signal detection and caspase3-like protease activity. Data were analyzed using one-way and ANOVA multiple comparisons. n=4-5. ****P<0.0001;
Apoptosis is associated with the absence of PC1 in ADPKD. To assess whether apoptosis is directly altered by VX-809, caspase 3 activity was monitored in PN cells.

Cc1ccc(NC(=O)C2(c3ccc4c(c3)OC(F)(F)O4)CC2)nc1-c1cccc(C(=O)O)c1 [VX-809, lumacaftor]
resting cAMP levels (cAMP in PN cells; 10 μM, 16 h, PN cells, no forskolin): significantly decreased | forskolin-induced increase in cAMP (cAMP in PN cells; 10 μM, 16 h, then forskolin 100 μM 30 min): reduced | forskolin- or IBMX-induced increases in adenylyl cyclase activity (cAMP in PN cells; forskolin in combination with IBMX (data bars 5 and 9, FIG. 4B)): did not affect | phosphodiesterase activity (cAMP in PN cells; inferred from forskolin/IBMX experiment): does not affect | cAMP levels in kidneys (cAMP): significantly decreased | PC2 in the cilium [1]: restores PC2 to the cilium | colocalization of PC2 with the cilia marker ac-αtubulin [1]: increases colocalization | PC2 localization (PC2): statistically significant move of PC2 from the ER to Golgi | caspase 3 activity [2]: small reduction

Reference: patent US20220133702A1, “CYSTIC FIBROSIS TRANSMEMBRANE CONDUCTANCE REGULATOR MODULATORS FOR TREATING AUTOSOMAL DOMINANT POLYCYSTIC KIDNEY DISEASE” (The Johns Hopkins University, priority 2020, published 2022)
